Results published in patent US8470844B2, “Imidazoacridinone derivative compounds and methods for their use” (Technion Research & Development Foundation Limited, priority 2008, dated 2013).
Changes are numbered by the printed parent chain. Blank lines part the entries; values can stand above or below the molecule they belong to.

Legend:
ABCG2 (A549/K1.5 cells) [1] = target: T1, ABCG2 (A549/K1.5 cells) (Homo sapiens, UniProt Q9UNQ0); assay: Fluorescence microscopy of nuclear accumulation of IAs in A549/K1.5 cells; format: cell-based; conditions: 10 μM IA, 1 hr
T1 construct: Drug resistant A549/K1.5 cells with ABCG2 overexpression were maintained under a continuous drug selection with 1.5 μM C-1305; endogenous in cells; host or cells: A549/K1.5 (C-1305-selected subline of human non-small cell lung cancer A549)
T1 sequence (Q9UNQ0 1-655): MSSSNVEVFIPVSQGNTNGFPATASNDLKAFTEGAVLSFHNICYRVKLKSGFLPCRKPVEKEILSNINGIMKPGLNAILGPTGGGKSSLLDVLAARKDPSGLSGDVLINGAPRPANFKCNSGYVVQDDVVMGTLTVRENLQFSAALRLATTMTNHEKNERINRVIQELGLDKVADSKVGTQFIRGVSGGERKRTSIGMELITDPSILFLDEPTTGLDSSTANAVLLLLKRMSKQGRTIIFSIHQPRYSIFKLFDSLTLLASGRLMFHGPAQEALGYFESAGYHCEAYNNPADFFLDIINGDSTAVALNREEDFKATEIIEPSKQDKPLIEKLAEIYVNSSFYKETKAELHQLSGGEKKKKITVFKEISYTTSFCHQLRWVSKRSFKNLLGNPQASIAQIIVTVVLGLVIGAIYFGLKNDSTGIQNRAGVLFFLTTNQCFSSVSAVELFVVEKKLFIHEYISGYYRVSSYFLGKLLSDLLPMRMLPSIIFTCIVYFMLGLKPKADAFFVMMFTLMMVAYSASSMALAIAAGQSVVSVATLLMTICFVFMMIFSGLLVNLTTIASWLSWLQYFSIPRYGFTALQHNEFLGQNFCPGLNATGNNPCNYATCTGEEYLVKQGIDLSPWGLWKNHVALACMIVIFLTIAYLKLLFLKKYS
Description: In immunofluorescence microscopy of plasma membrane targeting of ABCG2 and nuclear accumulation of IAs, cells (1×10^4/well) were seeded in 24-well plates (1 ml medium/well) and incubated for 2 days, following which some wells were supplemented with 10 μM IA-containing medium±5 μM FTC and incubated for 1 h at 37° C. Cells were then washed twice with ice-cold PBS containing 0.1% BSA and blocked for 10 min at 4° C. with PBS containing 5% BSA. Cells were then washed once with ice-cold PBS containing 0.1% BSA and incubated for 30 min at 4° C. with a Phycoerythrin-conjugated, affinity-purified 5D3 mouse anti-human ABCG2 monoclonal antibody (1:100; eBioscience). Unspecific fluorescence was determined using cells that were incubated only with a secondary Phycoerythrin (PE)-conjugated goat anti-mouse IgG (1:200; Jackson Immunoresearch Labs, West Grove, Pa.). Cells were then washed twice and subjected to fluorescence microscopy using a DMIRE2 fluorescence microscope equipped with a DC300FX camera (Leica Microsystems, Wetzlar, Germany).
In order to exclude the possibility that differential subcellular accumulation of IA derivatives is the basis of the observed difference in cytotoxicity and cellular fluorescence, A549/K1.5 cells were incubated with 10 μM of selected IA derivatives from both group A and B in the presence or absence of FTC and subjected to fluorescence microscopy.

A549/K1.5 cells = assay: MTT cytotoxicity assay, ABCG2-overexpressing A549/K1.5 cells; format: cell-based, Human; conditions: for IC50: ABCG2-overexpressing A549/K1.5 cells, 96 hours exposure, MTT; for RF (resistance fold): IC50 of A549/K1.5 cells divided by IC50 of parental A549 cells
Description: (§1) Tissue culture: Human non-small cell lung cancer A549 cells and T-cell leukemia CCRF-CEM cells were grown under monolayer conditions or up to a maximal density of 10^6 cells/ml (for CCRF-CEM cells) in RPMI-1640 medium (GIBCO) supplemented with 10% fetal calf serum, 2 mM glutamine, 100 μg/ml penicillin and 100 μg/ml streptomycin (Biological Industries, Beth-Haemek, Israel) in a humid atmosphere of 5% CO2. Drug resistant A549/K1.5 cells with ABCG2 overexpression were maintained under a continuous drug selection with 1.5 μM C-1305. Bram, E. E., et al., (2007) Biochem Pharmacol 74(1), 41-53.
(§2) Cytotoxicity and growth inhibition assays: The cytotoxic activity of the various IA antitumor agents was determined using the MTT assay. Poindessous, V., et al., (2003) Clin Cancer Res 9(7), 2817-2825.
(§3) Exponentially growing cells were seeded at 5×10^3 cells/well in 24-well plates (2 ml medium/well). Following an overnight incubation, cells were exposed to different drug concentrations for 96 hours. Cellular viability was determined by adding the tetrazolium salt MTT for 4 h at 37° C., followed by solubilization of the intracellular precipitated formazan in 1 ml DMSO and absorbance was determined by a microplate reader (ASYS Hitech GmbH, Austria). Drug concentrations required to inhibit cell growth by 50% (IC50) compared with untreated controls were determined from the curves of survival versus drug concentrations using the SlideWrite software (Advanced Graphics Software, Inc., Encinitas, Calif.). Resistance folds (RF) were calculated by dividing the IC50 value of the resistant cells by that of the parental cell line. Values presented are means of at least three independent experiments, each performed in duplicates.
Quantitative evaluation of ABCG2 interaction with various IA derivatives: The extent of ABCG2-mediated resistance was expressed using the Resistance Fold (RF) parameter representing the ratio between the IC50 values of the resistant cells and parental cells. Likewise, ABCG2-dependent differential accumulation of IAs in ABCG2-overexpressing A549/K1.5 cells was compared using the ratio of IA accumulation in the presence or absence of the potent ABCG2 inhibitor FTC. This was termed the FTC-dependent Accumulation Fold (AF) and was determined for each IA at a constant IA concentration of 10 μM.

A549 cells = assay: MTT cytotoxicity assay, parental A549 cells; format: cell-based, Human; conditions: 96 hours exposure, mean of at least three experiments
Description: as §1, §2, §3

[2] = system: untransfected HEK293 cells; assay: Flow cytometric accumulation in untransfected HEK293 cells; format: cell-based, Human; conditions: ±5 μM FTC; for efflux (in words): 1 μM IA
Description: (§4) For cytotoxicity and accumulation experiments, cells were grown in drug-free medium for at least one week prior to the experiments. Human embryonic kidney cells (HEK293) and their stable transfectants overexpressing the R482, G482 and T482 ABCG2 were grown in the above RPMI-1640 medium supplemented with 2 mg/ml G-418. Bram, E. E., et al., (2006) Cancer Chemother Pharmacol 58(6), 826-834.
(§5) IA derivative and tetramethylrosamine (TMR) accumulation in parental HEK293 and their HEK293/ABCG2 R/G/T482 transfectants were carried out as described herein with the a slight amendment of using a single IA concentration of 1 μM ±FTC (5 μM) for the selected as well as 0.1 μM for TMR accumulation. Robey, R. W., et al., (2003) Br J Cancer 89(10), 1971-1978. Cellular fluorescence was determined using a FACSCalibur (BD Bioscience, San Jose, Calif. USA) flow cytometer. FL1-H excitation of IAs was at 488 nm and emission was collected at 525 nm, whereas FL2-H excitation of TMR was at […] and emission was collected at 574 nm. Flow cytometric results are presented as means±SD of 3 independent experiments.
(§6) Bram, E. E., et al., (2006) Cancer Chemother Pharmacol 58(6), 826-834.

ABCG2 (A549/K1.5 cells) [3] = target: T1, ABCG2 (A549/K1.5 cells); assay: Flow cytometric IA accumulation in A549/K1.5 cells with or without fumitremorgin C; format: cell-based
Description: In this assay, one ml aliquots of A549/K1.5 or CCRF-CEM cell suspensions (1×10^6 cells/ml) in growth medium containing 20 mM Hepes at pH 7.3 were distributed into 1.5 ml polypropylene Eppendorf test tubes. […] Rabindran, S. […] Alternatively, in time-course experiments, IA derivatives at a constant concentration of 10 μM were added to a CCRF-CEM cell suspension incubated at 37° C., and 1 ml aliquots were removed at variable time points up to 1 hour. Following incubation, test tubes were transferred to ice and centrifuged at 4° C. Cells were then washed twice and re-suspended in ice-cold PBS containing 1% fetal calf serum and kept in the dark at 4° C. until analysis. […] Quantitative evaluation of ABCG2 interaction with various IA derivatives: The extent of ABCG2-mediated resistance was expressed using the Resistance Fold (RF) parameter representing the ratio between the IC50 values of the resistant cells and parental cells.

mutant G482 ABCG2 = target: T2, mutant G482 ABCG2 (Homo sapiens, UniProt Q9UNQ0, R482G); assay: Flow cytometric accumulation in HEK293 transfectants, mutant G482 ABCG2; conditions: HEK293 mutant G482 ABCG2, 0.1 μM TMR, ±5 μM FTC
T2 sequence (Q9UNQ0 1-655 R482G): T1 sequence (Q9UNQ0 1-655) with R482G
Description: as §4, §5, §6

mutant T482 ABCG2 = target: T3, mutant T482 ABCG2 (Homo sapiens, UniProt Q9UNQ0, R482T); assay: Flow cytometric accumulation in HEK293 transfectants, mutant T482 ABCG2; conditions: HEK293 mutant T482 ABCG2, 0.1 μM TMR, ±5 μM FTC
T3 sequence (Q9UNQ0 1-655 R482T): T1 sequence (Q9UNQ0 1-655) with R482T
Description: as §4, §5, §6

wild type R482 ABCG2 = target: T4, wild type R482 ABCG2 (Homo sapiens, UniProt Q9UNQ0); assay: Flow cytometric accumulation in HEK293 transfectants, wild type R482 ABCG2; conditions: HEK293 wild type R482 ABCG2, 0.1 μM TMR, ±5 μM FTC
T4 sequence (Q9UNQ0 1-655): T1 sequence (Q9UNQ0 1-655)
Description: as §4, §5, §6

SMILES: CN(C)CCCCCNc1ccc2ncn3c4ccccc4c(=O)c1c23.Cl [C-1266]
- nuclear accumulation (fluorescence microscopy) (ABCG2 (A549/K1.5 cells) [1]; presence or absence of 5 μM FTC): comparable and significant nuclear accumulation regardless of ABCG2 inhibition by FTC
- IC50 (A549/K1.5 cells): 0.56 ± 0.002 µM
- RF (resistance fold) (A549/K1.5 cells): 0.20
- hypersensitivity of A549/K1.5 cells (A549/K1.5 cells; versus parental A549 cells): 5.0 fold
- IC50 (A549 cells): 2.81 ± 0.27 µM

SMILES: Cc1nc2ccc(NCCN(C)C)c3c(=O)c4cc(O)ccc4n1c23.Cl [C-1309]
- IC50 (A549/K1.5 cells): 3.22 ± 0.18 µM
- RF (resistance fold) (A549/K1.5 cells): 60.80
- resistance of A549/K1.5 cells (A549/K1.5 cells; versus parental A549 cells): 61 fold
- resistance of A549/K1.5 cells (in words) (A549/K1.5 cells; versus parental A549 cells): prominent resistance
- efflux (in words) [2]: not from untransfected HEK293 cells
- IC50 (A549 cells): 0.05 ± 0.007 µM

- intracellular accumulation (fluorescence microscopy) (ABCG2 (A549/K1.5 cells) [1]; absence of FTC): no apparent intracellular accumulation
SMILES: CCN(CC)CCNc1ccc2nc(C)n3c4ccc(O)cc4c(=O)c1c23.Cl [C-1310]
- nuclear accumulation (fluorescence microscopy) (ABCG2 (A549/K1.5 cells) [1]; presence of 5 μM FTC): marked restoration of nuclear accumulation
- IC50 (A549/K1.5 cells): 1.22 ± 0.07 µM
- RF (resistance fold) (A549/K1.5 cells): 20.30
- resistance of A549/K1.5 cells (in words) (A549/K1.5 cells; versus parental A549 cells): prominent resistance
- efflux (in words) [2]: not from untransfected HEK293 cells
- IC50 (A549 cells): 0.06 ± 0.008 µM

SMILES: CCCCN(CCCC)CCNc1ccc2nc(C)n3c4ccc(O)cc4c(=O)c1c23.Cl [C-1315]
- ABCG2-mediated extrusion / interaction with ABCG2 (in words) (ABCG2 (A549/K1.5 cells) [3]): failed to display any significant interaction with ABCG2
- IC50 (A549/K1.5 cells): 3.46 ± 0.16 µM
- RF (resistance fold) (A549/K1.5 cells): 2.05
- IC50 (A549 cells): 1.69 ± 0.26 µM

SMILES: CCN(CC)CCCCCCCCCNc1ccc2ncn3c4ccc(O)cc4c(=O)c1c23.Cl [C-2018]
- ABCG2-mediated extrusion / interaction with ABCG2 (in words) (ABCG2 (A549/K1.5 cells) [3]): failed to display any significant interaction with ABCG2
- IC50 (A549/K1.5 cells): 2.13 ± 0.62 µM
- RF (resistance fold) (A549/K1.5 cells): 1.38
- IC50 (A549 cells): 1.54 ± 0.31 µM

SMILES: CN(C)c1ccc2c(-c3ccc(CCl)cc3)c3ccc(=[N+](C)C)cc-3oc2c1 [TMR, tetramethylrosamine]
- AF (FTC inducible accumulation fold) (mutant G482 ABCG2): marked AF
- AF (FTC inducible accumulation fold) (mutant T482 ABCG2): marked AF
- AF (FTC inducible accumulation fold) (wild type R482 ABCG2): 1.4
- AF (FTC inducible accumulation fold) ([2]; 0.1 μM TMR): 0.8 fold
